Structures are written as SMILES.

What all share (type): in vivo
For one data set, the system named is barley. Briefly: Post-emergence test/greenhouse, barley. To be noted: 500 g of ai./ha, after three weeks. Here is the method: (§1) Solvent: 5 parts by weight of acetone
(§2) Emulsifier: 1 part by weight of alkylaryl polyglycol ether
(§3) To produce a suitable preparation of active compound, 1 part by weight of active compound is mixed with the stated amount of solvent, the stated amount of emulsifier is added and the concentrate is diluted with water to the desired concentration.
(§4) Test plants of a height of 5-15 cm are sprayed with the preparation of active compound such that the particular amounts of active compound desired are applied per unit area. The concentration of the spray liquor is chosen so that the particular amounts of active compound desired are applied in 1000 l of water/ha.
(§5) After three weeks, the degree of damage to the plants is rated in % damage in comparison to the development of the untreated control.
(§6) 0%=no effect (like untreated control)

Another data set deals with wheat. The data set is described as follows: Post-emergence test/greenhouse, wheat. The settings on record: 500 g of ai./ha, after three weeks. Here is the method:
as §1, §2, §3, §4, §5, §6

A further data set has as its system Datura. The data set is described as follows: Post-emergence test/greenhouse, Datura. To be noted: 500 g of ai./ha, after three weeks. Here is the method: as §1, §2, §3, §4, §5, §6
The next data set deals with Ipomoea. The data set is described as follows: Post-emergence test/greenhouse, Ipomoea. To be noted: 500 g of ai./ha, after three weeks. The procedure: as §1, §2, §3, §4, §5, §6
The test system of the next data set is Solanum. Briefly: Post-emergence test/greenhouse, Solanum. To be noted: 500 g of ai./ha, after three weeks. The procedure: as §1, §2, §3, §4, §5, §6
A further data set deals with Viola. Briefly: Post-emergence test/greenhouse, Viola. The settings on record: 500 g of ai./ha, after three weeks. Here is the method: as §1, §2, §3, §4, §5, §6
In another data set the test system is Digitaria. Briefly: Post-emergence test/greenhouse, digitaria. To be noted: 500 g of ai./ha, after three weeks. The procedure:
as §1, §2, §3, §4, §5, §6

Data set [1] relates to weeds. Briefly: Pre-emergence test, activity against weeds. The settings on record: result in words. The procedure:
as §1, §2, §3
(§7) Seeds of the test plants are sown in normal soil. After about 24 hours, the soil is sprayed with the preparation of active compound such that the particular amount of active compound desired is applied per unit area. The concentration of the spray liquor is chosen so that the particular amount of active compound desired is applied in 1000 liters of water per hectare.
as §5, §6

Data set [2] relates to crop plants, such as, for example, cotton, maize, wheat and barley. The data set is described as follows: Pre-emergence test, tolerance by crop plants. The settings on record: result in words. Here is the method:
as §1, §2, §3, §7, §5, §6

Data set [3] concerns weeds. Briefly: Post-emergence test, activity against weeds. To be noted: result in words. The procedure: as §1, §2, §3, §4, §5, §6
Data set [4] has as its system crop plants, such as, for example, maize, barley and wheat. The data set is described as follows: Post-emergence test, tolerance by crop plants. To be noted: result in words. Here is the method:
as §1, §2, §3, §4, §5, §6

Another data set concerns maize. The data set is described as follows: Post-emergence test/greenhouse, maize. The settings on record: 1000 g of ai./ha, after three weeks. Here is the method: as §1, §2, §3, §4, §5, §6
The subject of the next data set is Setaria. The data set is described as follows: Post-emergence test/greenhouse, Setaria. To be noted: 1000 g of ai./ha, after three weeks. The procedure:
as §1, §2, §3, §4, §5, §6

The next data set deals with Abutilon. Briefly: Post-emergence test/greenhouse, Abutilon. To be noted: 1000 g of ai./ha, after three weeks. Here is the method:
as §1, §2, §3, §4, §5, §6

Another data set relates to Amaranthus. Briefly: Post-emergence test/greenhouse, Amaranthus. The settings on record: 1000 g of ai./ha, after three weeks. The procedure:
as §1, §2, §3, §4, §5, §6

For another data set, the system named is Sinapis. The data set is described as follows: Post-emergence test/greenhouse, Sinapis. The settings on record: 1000 g of ai./ha, after three weeks. The procedure: as §1, §2, §3, §4, §5, §6

`CCC(CCc1cc(Br)cs1)Nc1nc(NC(C)=O)nc(C(C)F)n1` (racemic) [Example 6]: in the data set with barley, the “degree of damage, barley” value stood at 0%. The “degree of damage, wheat” value with wheat was found to be 0%. In addition, the “degree of damage, Datura” value with Datura is on record as 100%. In the data set with Ipomoea, the “degree of damage, Ipomoea” value was determined as 100%. The “degree of damage, Solanum” value in the data set with Solanum was 100%. For the same compound, the “degree of damage, Viola” value in the data set with Viola stood at 100%. Moreover, the “degree of damage, Digitaria” value with Digitaria came out at 90%. The activity against weeds result in the data set on weeds [1] and in the data set on weeds [3] was “strong activity against weeds” each time. For the same compound, the results for the “tolerance by crop plants” value in data set [2] and in data set [4] were “largely tolerated well” and “tolerated well”, respectively.
As for `CC(CCCc1cccs1)Nc1nc(N)nc(C(C)(C)F)n1` (centres unmarked) [Example 1, 2-amino-4-(1-fluoro-1-methyl-ethyl)-6-(1-methyl-4-(thien-2-yl)-butylamino)-1,3,5-triazine], the “degree of damage, maize” value in the data set on maize came to 30%. For the same compound, in the data set with Setaria, the “degree of damage, Setaria” value stood at 80%. Moreover, the “degree of damage, Abutilon” value in the data set with Abutilon amounted to 95%. The “degree of damage, Amaranthus” value in the data set with Amaranthus stood at 100%. Further, the “degree of damage, Sinapis” value with Sinapis is 100%. Also, the activity against weeds result in the data set on weeds [1] and with weeds [3] was “strong activity against weeds” in each case. Also, the “tolerance by crop plants” value is reported as “largely tolerated well” in [2] and “tolerated well” in data set [4].

Source of the values: US6420313B1, “Thienylalkylamino-1,3,5-triazines and the use thereof as herbicides” (Bayer Aktiengesellschaft, priority 1998, dated 2002).
